Experimental data taken from BindingDB's records for doi:10.1124/jpet.108.143271 (Bristol-Myers Squibb, 2008).
Substitutions are numbered along the chain they refer to.

How the values were obtained:
[1] = target: T1, Peroxisome proliferator-activated receptor alpha (Rattus norvegicus, UniProt P37230)
T1 sequence (P37230 whole entry): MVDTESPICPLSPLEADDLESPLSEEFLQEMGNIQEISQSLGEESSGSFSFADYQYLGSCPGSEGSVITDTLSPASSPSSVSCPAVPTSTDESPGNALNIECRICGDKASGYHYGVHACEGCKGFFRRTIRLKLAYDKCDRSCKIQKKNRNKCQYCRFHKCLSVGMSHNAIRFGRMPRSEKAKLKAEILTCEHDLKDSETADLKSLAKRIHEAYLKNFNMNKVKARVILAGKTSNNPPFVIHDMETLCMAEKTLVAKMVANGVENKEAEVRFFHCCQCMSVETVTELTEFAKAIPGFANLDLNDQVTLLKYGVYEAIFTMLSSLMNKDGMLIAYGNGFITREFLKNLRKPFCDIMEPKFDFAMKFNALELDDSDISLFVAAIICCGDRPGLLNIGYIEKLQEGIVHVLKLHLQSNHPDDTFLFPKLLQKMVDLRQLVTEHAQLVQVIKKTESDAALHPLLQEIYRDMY

[2] = target: T2, Peroxisome proliferator-activated receptor delta (Homo sapiens, UniProt Q03181)
T2 sequence (Q03181 whole entry): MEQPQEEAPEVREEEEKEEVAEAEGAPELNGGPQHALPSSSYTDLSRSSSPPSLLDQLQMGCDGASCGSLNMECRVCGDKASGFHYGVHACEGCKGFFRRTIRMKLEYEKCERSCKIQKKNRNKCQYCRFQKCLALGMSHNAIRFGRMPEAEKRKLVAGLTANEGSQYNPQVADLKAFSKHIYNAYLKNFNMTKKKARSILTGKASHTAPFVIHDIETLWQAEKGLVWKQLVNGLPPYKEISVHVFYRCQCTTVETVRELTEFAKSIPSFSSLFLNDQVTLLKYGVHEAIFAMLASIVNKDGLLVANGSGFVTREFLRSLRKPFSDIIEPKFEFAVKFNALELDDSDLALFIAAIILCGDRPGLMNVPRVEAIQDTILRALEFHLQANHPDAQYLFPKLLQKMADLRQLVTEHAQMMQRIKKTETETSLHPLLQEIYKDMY

[3] = target: T3, Peroxisome proliferator-activated receptor alpha (Mesocricetus auratus, UniProt Q7TNH1)
T3 sequence (Q7TNH1 whole entry): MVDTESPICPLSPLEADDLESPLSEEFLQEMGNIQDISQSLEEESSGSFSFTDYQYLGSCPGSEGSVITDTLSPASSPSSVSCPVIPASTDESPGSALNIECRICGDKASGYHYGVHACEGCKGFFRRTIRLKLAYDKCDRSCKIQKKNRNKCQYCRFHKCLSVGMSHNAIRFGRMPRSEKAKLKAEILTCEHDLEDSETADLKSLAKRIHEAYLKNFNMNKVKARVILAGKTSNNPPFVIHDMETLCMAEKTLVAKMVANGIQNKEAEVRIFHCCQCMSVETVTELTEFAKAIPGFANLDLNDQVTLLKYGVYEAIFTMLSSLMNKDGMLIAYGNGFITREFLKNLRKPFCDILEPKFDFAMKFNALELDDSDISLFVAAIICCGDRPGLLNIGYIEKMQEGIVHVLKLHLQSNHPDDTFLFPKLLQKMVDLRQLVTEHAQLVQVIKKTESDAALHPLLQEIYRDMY

[4] = target: T4, Peroxisome proliferator-activated receptor alpha (Mus musculus, UniProt P23204)
T4 sequence (P23204 whole entry): T1 sequence (P37230 whole entry) with L41I, S50G, A85V, V86I, T88A, N96S, A135V, A207G, N265D

[5] = target: T5, Peroxisome proliferator-activated receptor alpha (Homo sapiens, UniProt Q07869); assay: PPAR alpha Fluorescence Polarization Assay; conditions: pH 8; 22 °C
T5 sequence (Q07869 whole entry): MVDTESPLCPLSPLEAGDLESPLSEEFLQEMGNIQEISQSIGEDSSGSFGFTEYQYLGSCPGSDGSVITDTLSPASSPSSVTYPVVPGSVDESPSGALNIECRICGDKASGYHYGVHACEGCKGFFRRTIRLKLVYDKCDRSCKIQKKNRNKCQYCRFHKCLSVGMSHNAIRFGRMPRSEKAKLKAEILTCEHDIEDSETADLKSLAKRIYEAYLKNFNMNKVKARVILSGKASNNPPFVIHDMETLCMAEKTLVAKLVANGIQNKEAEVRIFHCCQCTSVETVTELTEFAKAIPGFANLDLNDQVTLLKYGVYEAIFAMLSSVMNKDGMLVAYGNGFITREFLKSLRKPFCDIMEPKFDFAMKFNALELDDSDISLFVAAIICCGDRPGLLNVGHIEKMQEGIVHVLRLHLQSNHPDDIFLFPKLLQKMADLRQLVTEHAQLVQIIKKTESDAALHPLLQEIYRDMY

[6] = target: T6, Peroxisome proliferator-activated receptor gamma (Homo sapiens, UniProt P37231); assay: PPAR gamma Fluorescence Polarization Assay; conditions: pH 8; 22 °C
T6 sequence (P37231 whole entry): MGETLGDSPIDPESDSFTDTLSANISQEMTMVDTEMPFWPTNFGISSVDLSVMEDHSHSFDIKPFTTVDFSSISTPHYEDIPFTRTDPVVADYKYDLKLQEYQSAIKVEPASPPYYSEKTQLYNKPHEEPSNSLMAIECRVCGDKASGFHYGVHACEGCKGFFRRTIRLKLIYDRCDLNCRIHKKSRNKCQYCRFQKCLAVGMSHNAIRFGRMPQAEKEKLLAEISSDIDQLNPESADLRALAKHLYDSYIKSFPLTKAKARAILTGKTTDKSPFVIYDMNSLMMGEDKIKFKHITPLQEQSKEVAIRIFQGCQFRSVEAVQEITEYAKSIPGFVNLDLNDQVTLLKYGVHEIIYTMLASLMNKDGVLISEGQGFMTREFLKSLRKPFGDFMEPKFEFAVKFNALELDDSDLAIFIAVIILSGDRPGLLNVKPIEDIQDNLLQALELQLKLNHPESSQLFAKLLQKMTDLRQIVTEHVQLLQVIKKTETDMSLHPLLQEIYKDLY

COC(=O)N(CC(=O)O)Cc1cccc(OCc2nc(-c3ccc(Cl)cc3)oc2C)c1 [2-{[(3-{[2-(4-chlorophenyl)-5-methyl-1,3-oxazol-4-yl]methoxy}phenyl)methyl](methoxycarbonyl)amino}acetic acid]
EC50 [1]: 0.317 µM

COC(=O)N(CC(=O)O)Cc1cc(OCc2nc(-c3ccc(Cl)cc3)oc2C)ccc1F [2-{[(5-{[2-(4-chlorophenyl)-5-methyl-1,3-oxazol-4-yl]methoxy}-2-fluorophenyl)methyl](methoxycarbonyl)amino}acetic acid]
EC50 [1]: 0.123 µM
EC50 [2]: > 25 µM
EC50 [3]: 0.178 µM
EC50 [4]: 0.145 µM
IC50 [5]: 0.097 µM
IC50 [6]: > 15 µM

CC(Oc1ccc(Oc2ccc(Cl)cc2)cc1)C(=O)O (configuration not stated) [Clofop]
EC50 [1]: 17.7 µM
EC50 [3]: 28.7 µM
EC50 [4]: 18.5 µM
EC50 [5]: 11.6 µM
IC50 [5]: > 98.4 µM
